The values that follow come from patent US4157439A, “Novel nitrosourea derivatives” (priority 1976, dated 1979).

Read-outs that look alike come from different tables or passages of the source.

One data set has as its system leukemia and tumors. The conditions noted are these: background statement on earlier compounds; cited from earlier work.
The conditions of data set [1]: background statement on earlier compounds; cited from earlier work.
The conditions of data set [2]: cited from earlier work.
The test system of a further data set is Leukemia L 1210. The data set can be described thus: Anti-leukemic activity on Leukemia L 1210 in mice (survival, percentage increase in life-span). The format is in vivo, male BDF1 mice. The following applies: for Survival days (mean): untreated control 8.0 days; for Number of survivors (after 60 days): survivors/animals after 60 days. As for the experimental part:
The anti-leukemic activity of some typical nitrosourea derivatives of the formula (I) according to this invention was tested on Leukemia L 1210 in mice, details of which are given below. By way of comparison, Streptozotocin was tested in the same way.
Male BDF1 mice, aging about 6-weeks old and weighing 22±1 g were used in groups of 5 animals each for the tests.
Each animal was inoculated with 10^6 cells of L 1210 intraperitoneally,and the test compound in the form as shown below was administered intraperitoneally from the 24th hour after inoculation once a day for 3 consecutive days. The anti-leukemic activity was assessed by comparing the mean survival days of the treated mice to that of the untreated control, i.e. percentage increase in life-span (ILS) which was calculated as follows:
Percentage increase in life-span (ILS)=(T-C/C)×100
T: The mean survival days of the treated animals
C: The mean survival days of the untreated animals
The compounds No. 1 and No. 3 were used in the form of an aqueous solution in distilled water and the compound No. 2 in the form of an aqueous suspension containing 1% CMC.

Data set [3] is described as follows: Acute toxicity in the intraperitoneal administration to BDF1 mice. The conditions noted are these: mouse, in vivo, ip. The source says: It will be appreciated clearly from the tests results of Table 1 that the novel nitrosourea derivatives according to this invention gave a significant increase in life-span in therapeutic treatment of the leukemia in comparison with streptozotocin as a known anti-leukemic nitrosourea. The novel nitrosourea derivatives according to this invention are further characterized by their low toxicity, thus satisfying their practical application for treating leukemia and tumor diseases. For example, acute toxicity in the intraperitoneal administration to BDF1 mice of typical nitrosourea derivatives according to this invention is shown below: […]

Setting [4] is: background statement on earlier compounds.
Setting [5] is: dose 4 mg/kg i.p. once a day for 3 days, 60 days observation.
The mark [6] stands for this setting: dose 4 mg/kg i.p. once a day for 3 days.
The mark [7] stands for this setting: dose 8 mg/kg i.p. once a day for 3 days, 60 days observation.
[8] abbreviates: dose 8 mg/kg i.p. once a day for 3 days.
The mark [9] stands for this setting: dose 1 mg/kg i.p. once a day for 3 days, 60 days observation.
Setting [10] is: dose 2 mg/kg i.p. once a day for 3 days, 60 days observation.

Consider `O=NN(CCCl)C(=O)N[C@@H]1O[C@H](CO)[C@@H](O)[C@H](O)[C@H]1O` [1-(2-chloroethyl)-3-(β-D-glucopyranosyl)-1-nitrosourea], for which, in the data set on leukemia and tumors, the “activity against the leukemia and tumors” value was “remarkably high inhibitory activity against a variety of leukemia and tumors”. Besides, in data set [1], the hygroscopicity entry is reported as “somewhat hygroscopic”. In data set [2] (setting [4]), the side effect result is recorded as “low side effect” and the toxicity entry is “low toxicity”.

With `CC(=O)N[C@@H]1[C@@H](OC(C)=O)[C@H](OC(C)=O)[C@@H](COC(C)=O)O[C@H]1NC(=O)N(CCCl)N=O` [compound 1, 1-(2-Chloroethyl)-3-(2-acetamido-3,4,6-tri-O-acetyl-2-deoxy-β-D-glucopyranosyl)-1-nitrosourea], the “ILS (percentage increase in life-span)” value with Leukemia L 1210 (setting [5]) is recorded as 78.8%; in the data set with Leukemia L 1210 (setting [7]) it was 105.0%. Besides, the entries for the “Survival days (mean)” value in the data set with Leukemia L 1210 (setting [5]) and with Leukemia L 1210 (setting [7]) were 14.3 days and 16.4 days, respectively. Besides, the “Number of survivors (after 60 days)” value in the data set on Leukemia L 1210 (setting [6]) and in the data set with Leukemia L 1210 (setting [8]) was 0/5 each time. Further, the LD50 (as a rule, the dose at which mortality reaches 50%) in data set [3] came out at 25 mg/kg.

Regarding `CC(=O)N[C@@H]1[C@@H](O)[C@H](O)[C@@H](CO)O[C@H]1NC(=O)N(CCCl)N=O` [compound 2, 1-(2-Chloroethyl)-3-(2-acetamido-2-deoxy-β-D-glucopyranosyl)-1-nitrosourea], the “ILS (percentage increase in life-span)” value in the data set on Leukemia L 1210 (setting [9]) is 41.3%; with Leukemia L 1210 (setting [10]) it was 55.0%; with Leukemia L 1210 (setting [5]), 95.0%; with Leukemia L 1210 (setting [7]) it was below 495.0%. Moreover, the “Survival days (mean)” value in the data set with Leukemia L 1210 (setting [9]) was 11.3 days; in the data set with Leukemia L 1210 (setting [10]) it was 12.4 days; in the data set on Leukemia L 1210 (setting [5]), 15.6 days; in the data set with Leukemia L 1210 (setting [7]) it was below 47.6 days. Also, the “Number of survivors (after 60 days)” value in the data set with Leukemia L 1210 (dose 1 mg/kg i.p. once a day for 3 days) was 0/5; in the data set with Leukemia L 1210 (dose 2 mg/kg i.p. once a day for 3 days) it was 0/5; with Leukemia L 1210 (setting [6]), 0/5; in the data set on Leukemia L 1210 (setting [8]), 3/5. The same compound returned an LD50 in data set [3] of 20 mg/kg.

For the compound `CN(N=O)C(=O)N[C@H]1C(O)O[C@H](CO)[C@@H](O)[C@@H]1O` (stereo partly drawn) [compound 3, N-(N'-methyl-N'-nitroso-carbamoyl)-D-glucosamine, reference compound], the “Survival days (mean)” value with Leukemia L 1210 (dose 50 mg/kg i.p. once a day for 3 days, 60 days observation) was determined as 12.1 days; in the data set on Leukemia L 1210 (dose 100 mg/kg i.p. once a day for 3 days, 60 days observation), 10.6 days. For the same compound, the “Number of survivors (after 60 days)” value with Leukemia L 1210 (dose 50 mg/kg i.p. once a day for 3 days) and with Leukemia L 1210 (dose 100 mg/kg i.p. once a day for 3 days) was 0/5 in each case. Besides, the “ILS (percentage increase in life-span)” value with Leukemia L 1210 (ip, 50 mg/kg) was found to be 51.3%; with Leukemia L 1210 (ip, 100 mg/kg), 32.5%. In addition, the “activity against the leukemia and tumors” value with leukemia and tumors is “insufficient activity against the leukemia and tumors”. Also, in data set [2] (in vivo), the side effect result is given as “undesirable side effect”.
